Reference: PMC7946667 (Cancer Chemotherapy and Pharmacology, 2021)
“Also recorded” adds a separate entry of the source. Like-named read-outs stand apart in the source and are kept apart here.

Columns and labels:
CYP2C9 [1] = conditions: for AUC0-inf, adjusted geometric mean / Cmax, adjusted geometric mean: linear mixed effects model; for AUC0–144 h / Cmax: patient plasma, geometric mean (CV%); for classification as CYP2C9 inhibitor: based on S-warfarin AUC increase, ceritinib 750 mg QD
[2] = Safety and tolerability (adverse events) of ceritinib 750 mg QD in patients
Procedure: (§1) Adverse events (AEs) were coded using the Medical Dictionary for Regulatory Activities version 20.1 and were graded using Common Terminology Criteria for Adverse Events version 4.03. All patients were followed up for AEs and serious AEs (SAEs) for at least 30 days following the last dose of study treatment at the end of treatment phase. Tumor evaluation was performed at screening visit within 28 days prior to study treatment (Day 1 of DDI phase) using contrast enhanced computed tomography (or magnetic resonance imaging). Assessments of tumor response were performed every two cycles (i.e., every 6 weeks) through Cycle 9. ORR and DOR by investigator assessment was reported per Response Evaluation Criteria in Solid Tumors (RECIST) 1.1.

CYP3A [3] = conditions: in vitro HLM studies; cited from earlier work
CYP3A [4] = assay: Clinical DDI study: pharmacokinetics of midazolam (CYP3A probe substrate) and 1′-hydroxymidazolam with and without ceritinib; type: in vivo, human; conditions: based on midazolam AUC increase, ceritinib 750 mg QD
Text: This was a multicenter, open-label, single sequence, crossover phase I study (ClinicalTrials.gov identifier: NCT02422589) and was divided into two phases, DDI phase and post-DDI treatment phase (Fig. 1). Patients were recruited from 10 clinical centers located across 4 countries, namely Spain (n = 3), United States (n = 3), Italy (n = 3), and Denmark (n = 1).
To assess the pharmacokinetics of probe substrates, blood samples were obtained on Days 1 and 28 at pre-dose and at 0.25, 0.5, 1, 2, 3, 4, 6, 8, 10, 24, 48, 72, 96, 120, and 144 h post-dose. […] A blood sample for CYP2C9 genotyping was collected on Day 1 of the DDI phase from all participating patients. Patients were categorized as CYP2C9 poor, intermediate, or extensive metabolizers based on the genotype testing results. This assessment was of exploratory nature and was not used as inclusion/exclusion criteria in the study.
A linear mixed-effects model was fitted to the log-transformed primary PK parameters (Cmax, AUC0-144 h, and AUC0-inf) and included a fixed effect for treatment and a random effect for subject.

CYP2C9 [5] = conditions: cited from earlier work
CYP2C19 = conditions: cited from earlier work
CYP2C8 = conditions: cited from earlier work
CYP2A6 = conditions: HLM, of more minor clinical relevance; cited from earlier work
CYP2B6 = conditions: cited from earlier work
CYP1A2 = conditions: cited from earlier work
CYP3A4/5 = conditions: cited from earlier work
[6] = tested on: advanced ALK-positive tumors; assay: Antitumor activity (best overall response, ORR, DCR per RECIST 1.1, investigator assessment); type: in vivo, human
Procedure: as §1

[7] = cited from earlier work
CYP2D6 = conditions: cited from earlier work
[8] = treatment warfarin + ceritinib 750 mg QD for 3 weeks
[9] = warfarin 10 mg single oral dose + ceritinib 750 mg QD at steady state (Day 28)
[10] = warfarin 10 mg single oral dose alone (Day 1)
[11] = HLM, read-out: IC50, reversible inhibition
[12] = HLM, read-out: Ki, reversible inhibition
[13] = ceritinib concentrations up to 50 µM
[14] = HLM, of more minor clinical relevance
[15] = All Patients N=33, ceritinib 750 mg QD
[16] = NSCLC N=19, ceritinib 750 mg QD
[17] = Other tumors N=14, ceritinib 750 mg QD

With `CC(=O)C[C@H](c1ccccc1)c1c(O)c2ccccc2oc1=O` [R-warfarin] the “AUC0-inf, adjusted geometric mean” value (CYP2C9 [1]; [8]) was 38900 ng·h/mL, the “Cmax, adjusted geometric mean” value (CYP2C9 [1]; [8]) was 616 ng/mL and the “AUC0-inf, adjusted geometric mean” value (CYP2C9 [1]; treatment warfarin alone) was 36300 ng·h/mL. The “Cmax, adjusted geometric mean” value (CYP2C9 [1]; treatment warfarin alone) was 560 ng/mL, the “AUC0–144 h” value (CYP2C9 [1]; [9]) was 38,500 (34.9) h*ng/mL and the Cmax (CYP2C9 [1]; [9]) was 616 (23.6) ng/mL. For the same compound, the “AUC0–144 h” value (CYP2C9 [1]; [10]) was 30,600 (39.0) h*ng/mL, the Cmax (CYP2C9 [1]; [10]) was 560 (34.2) ng/mL and the “impact of ceritinib on R-warfarin pharmacokinetics” value (CYP2C9 [1]; warfarin + ceritinib vs warfarin alone) was “did not affect the pharmacokinetics of R-warfarin to a clinically significant extent; also recorded: negligible”.
With `CC(=O)C[C@@H](c1ccccc1)c1c(O)c2ccccc2oc1=O` [S-warfarin] the “reduction of S-warfarin CL/F” value (CYP2C9 [1]; co-administered with ceritinib vs warfarin alone) was “approximately 30%”, the “AUC0-inf, adjusted geometric mean” value (CYP2C9 [1]; [8]) was 32800 ng·h/mL and the “Cmax, adjusted geometric mean” value (CYP2C9 [1]; [8]) was 598 ng/mL. The “AUC0-inf, adjusted geometric mean” value (CYP2C9 [1]; treatment warfarin alone) was 21200 ng·h/mL, the “Cmax, adjusted geometric mean” value (CYP2C9 [1]; treatment warfarin alone) was 569 ng/mL and the “AUC0–144 h” value (CYP2C9 [1]; [9]) was 28,400 (36.0) h*ng/mL. For the same compound, the Cmax (CYP2C9 [1]; [9]) was 599 (27.5) ng/mL, the “AUC0–144 h” value (CYP2C9 [1]; [10]) was 18,200 (46.6) h*ng/mL and the Cmax (CYP2C9 [1]; [10]) was 569 (34.9) ng/mL.
With `Cc1cc(Nc2ncc(Cl)c(Nc3ccccc3S(=O)(=O)C(C)C)n2)c(OC(C)C)cc1C1CCNCC1` [ceritinib] the “classification as CYP2C9 inhibitor” value (CYP2C9 [1]) was “weak inhibitor of CYP2C9”, the “classification as CYP2C9 inhibitor” value (CYP2C9 [1]; listed as Ceritinib) was “weak CYP2C9 inhibitor” and the “deaths suspected to be treatment related” value ([2]; all patients N=33) was “None”. The “patients who died during the study” value ([2]; all patients N=33, cause study disease) was 8 patients, the “deaths during the on-treatment period” value ([2]; within 30 days of last dose of ceritinib) was 4 deaths and the “share of hepatic oxidative metabolism via CYP3A” value (CYP3A [3]) was over 90%. The “classification as CYP3A inhibitor” value (CYP3A [4]) was “strong inhibitor of CYP3A”, the “classification as CYP3A inhibitor” value (CYP3A [4]; listed as Ceritinib) was “strong CYP3A inhibitor” and the IC50 (CYP2C9 [5]; [11]) was 2000 nM. The Ki (CYP2C9 [5]; [12]) was 240 nM, the time-dependent inhibition (CYP2C9 [5]; [13]) was “no apparent time-dependent inhibition” and the “mode of inhibition of metabolism of diclofenac (CYP2C9 substrate)” value (CYP2C9 [5]; pooled HLMs) was “competitively inhibited”. For the same compound, the “inhibition at clinically relevant concentrations” value (CYP2C19) was “unlikely to inhibit”, the “inhibition at clinically relevant concentrations” value (CYP2C8) was “unlikely to inhibit” and the reversible inhibition (CYP2A6) was “reversibly inhibits”. For the same compound, the reversible inhibition (CYP2B6; [14]) was “reversibly inhibits”, the “inhibition at clinically relevant concentrations” value (CYP2B6) was “unlikely to inhibit” and the time-dependent inhibition (CYP1A2; [13]) was “no apparent time-dependent inhibition”. The “inhibition at clinically relevant concentrations” value (CYP1A2) was “unlikely to inhibit”, the IC50 (CYP3A4/5; [11]) was 200 nM and the Ki (CYP3A4/5; [12]) was 160 nM. The “mode of inhibition of metabolism of midazolam (CYP3A substrate)” value (CYP3A4/5; pooled HLMs) was “competitively inhibited”, the “inhibitor concentration associated with 50% maximal inactivation rate [Ki]” value (CYP3A4/5; time-dependent inhibition of CYP3A, HLM) was 1470 nM and the ORR ([6]; 19 patients with NSCLC, 95% CI: 20.3, 66.5) was 42.1%. For the same compound, the DCR ([6]; 19 patients with NSCLC, 95% CI: 38.4, 83.7) was 63.2%, the “Best overall response Unknown” value [6, 15] was 6 (18.2) n (%) and the “Complete response (CR)” value [6, 15] was 1 (3.0) n (%). For the same compound, the Non-CR/Non-PD [6, 15] was 2 (6.1) n (%), the “Partial response (PR)” value [6, 15] was 8 (24.2) n (%) and the “Progressive disease (PD)” value [6, 15] was 12 (36.4) n (%). The “Best overall response Unknown” value [6, 16] was 4 (21.1) n (%), the “Complete response (CR)” value [6, 16] was 1 (5.3) n (%) and the Non-CR/Non-PD [6, 16] was 2 (10.5) n (%). The “Partial response (PR)” value [6, 16] was 7 (36.8) n (%), the “Progressive disease (PD)” value [6, 16] was 3 (15.8) n (%) and the “Best overall response Unknown” value [6, 17] was 2 (14.3) n (%). The “Complete response (CR)” value [6, 17] was 0 n (%), the Non-CR/Non-PD [6, 17] was 0 n (%) and the “Partial response (PR)” value [6, 17] was 1 (7.1) n (%). For the same compound, the “Progressive disease (PD)” value [6, 17] was 9 (64.3) n (%), the ORR ([6]; overall, all 33 patients, 95% CI: 13.3, 45.5) was 27.3% and the DCR ([6]; overall, all 33 patients, 95% CI: 28.1, 63.6) was 45.5%. The Cmax at steady-state ([7]; observed in earlier clinical trials) was 1010 ng/mL, the Cmax ([7]; observed in earlier clinical trials, read-out: Cmax at steady-state) was 1800 nM and the time to steady-state ([7]; repeat daily dosing) was 2–3 weeks. For the same compound, the reversible inhibition (CYP2D6; [14]) was “reversibly inhibits”, the time-dependent inhibition (CYP2D6; [13]) was “no apparent time-dependent inhibition” and the “inhibition at clinically relevant concentrations” value (CYP2D6) was “unlikely to inhibit”.
